Assay results: patent US12421210B2, “Fused bicyclic heterocycles as therapeutic agents” (NEW YORK UNIVERSITY, priority 2018, dated 2025)
Read-outs that look alike come from different tables or passages of the source.

Target: human NAMPT enzyme (His-hNAMPT) (Homo sapiens (Human), UniProt P43490)
Assay: NAMPT enzymatic inhibition assay (fluorescence, NADH product)
Type: biochemical
[1] = [HDB], read-out: NAMPT IC50 (μM) [HDB]
[2] = [BPS], read-out: NAMPT IC50 (μM) [BPS]

Chain of human NAMPT enzyme (His-hNAMPT) (P43490 whole entry): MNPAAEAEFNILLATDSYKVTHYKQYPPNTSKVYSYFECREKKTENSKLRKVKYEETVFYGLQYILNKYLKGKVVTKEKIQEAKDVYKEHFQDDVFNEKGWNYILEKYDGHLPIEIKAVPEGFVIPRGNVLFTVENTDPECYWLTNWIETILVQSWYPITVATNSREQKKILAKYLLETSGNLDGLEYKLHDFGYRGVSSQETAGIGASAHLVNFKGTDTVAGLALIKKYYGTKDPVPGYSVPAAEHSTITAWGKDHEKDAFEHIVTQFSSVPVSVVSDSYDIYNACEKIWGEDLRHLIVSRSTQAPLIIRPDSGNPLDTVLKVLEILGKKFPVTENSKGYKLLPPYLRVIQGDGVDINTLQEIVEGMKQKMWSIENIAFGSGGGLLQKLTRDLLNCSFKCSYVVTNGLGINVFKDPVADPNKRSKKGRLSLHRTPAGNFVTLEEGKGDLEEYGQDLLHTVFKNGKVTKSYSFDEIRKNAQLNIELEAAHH

## O=C(/C=C/c1cccnc1)NCC[C@@H]1[C@H]2CN(c3cc(Cl)ccc3F)C[C@@H]12 [Example 150, (E)-N-(2-((1R,5S,6s)-3-(5-chloro-2-flurophenyl)-3-azabicyclo[3.1.0]hexan-6-yl)ethyl)-3-(pyridin-3-yl)acrylamide]
[1]
  IC50: 0.01 to 0.49 µM

## CSc1cccc(N2C[C@@H]3[C@@H](CCNC(=O)/C=C/c4cccnc4)[C@@H]3C2)c1 [Example 151, (E)-N-(2-((1R,5S,6s)-3-(3-(methylthio)phenyl)-3-azabicyclo[3.1.0]hexan-6-yl)ethyl)-3-(pyridin-3-yl)acrylamide]
[1]
  IC50: < 0.01 µM

## CS(=O)(=O)c1cccc(N2C[C@@H]3[C@@H](CCNC(=O)/C=C/c4cccnc4)[C@@H]3C2)c1 [Example 152, (E)-N-(2-((1R,5S,6s)-3-(3-(methylsulfonyl)phenyl)-3-azabicyclo[3.1.0]hexan-6-yl)ethyl)-3-(pyridin-3-yl)acrylamide]
[1]
  IC50: 0.01 to 0.49 µM

## O=C(/C=C/c1cccnc1)NCC[C@@H]1[C@H]2CN(c3ccc(F)c(Cl)c3)C[C@@H]12 [Example 153, (E)-N-(2-((1R,5S,6s)-3-(3-chloro-4-fluorophenyl)-3-azabicyclo[3.1.0]hexan-6-yl)ethyl)-3-(pyridin-3-yl)acrylamide]
[1]
  IC50: 0.01 to 0.49 µM

## O=C(/C=C/c1cccnc1)NCC[C@@H]1[C@H]2CN(c3ccncc3)C[C@@H]12 [Example 154, (E)-3-(pyridin-3-yl)-N-(2-((1R,5S,6s)-3-(pyridin-4-yl)-3-azabicyclo[3.1.0]hexan-6-yl)ethyl)acrylamide]
[1]
  IC50: 0.01 to 0.49 µM

## CC(C)(C)c1cccc(N2C[C@@H]3[C@@H](CCNC(=O)/C=C/c4cccnc4)[C@@H]3C2)c1 [Example 155, (E)-N-(2-((1R,5S,6s)-3-(3-(tert-butyl)phenyl)-3-azabicyclo[3.1.0]hexan-6-yl)ethyl)-3-(pyridin-3-yl)acrylamide]
[1]
  IC50: 0.01 to 0.49 µM

## O=C(/C=C/c1cccnc1)NCC[C@@H]1[C@H]2CN(c3ccc4c(c3)C(=O)NC4)C[C@@H]12 [Example 156, (E)-N-(2-((1R,5S,6s)-3-(3-oxoisoindolin-5-yl)-3-azabicyclo[3.1.0]hexan-6-yl)ethyl)-3-(pyridin-3-yl)acrylamide]
[1]
  IC50: 0.01 to 0.49 µM

## O=C(/C=C/c1cccnc1)NCC[C@@H]1[C@H]2CN(c3ccc4c(c3)CNC4=O)C[C@@H]12 [Example 157, (E)-N-(2-((1R,5S,6s)-3-(1-oxoisoindolin-5-yl)-3-azabicyclo[3.1.0]hexan-6-yl)ethyl)-3-(pyridin-3-yl)acrylamide]
[1]
  IC50: < 0.01 µM

## CC(C)(C)Oc1cccc(N2C[C@@H]3[C@@H](CCNC(=O)/C=C/c4cccnc4)[C@@H]3C2)c1 [Example 158, (E)-N-(2-((1R,5S,6s)-3-(3-(tert-butoxy)phenyl)-3-azabicyclo[3.1.0]hexan-6-yl)ethyl)-3-(pyridin-3-yl)acrylamide]
[1]
  IC50: < 0.01 µM

## O=C(/C=C/c1cccnc1)NCC[C@@H]1[C@H]2CN(c3ccnc(C(F)(F)F)c3)C[C@@H]12 [Example 159, (E)-3-(pyridin-3-yl)-N-(2-((1R,5S,6s)-3-(2-(trifluoromethyl)pyridin-4-yl)-3-azabicyclo[3.1.0]hexan-6-yl)ethyl)acrylamide]
[1]
  IC50: < 0.01 µM

## O=C(/C=C/c1cccnc1)NCC[C@@H]1[C@H]2CN(c3ccnc(Cl)c3)C[C@@H]12 [Example 160, (E)-N-(2-((1R,5S,6s)-3-(2-chloropyridin-4-yl)-3-azabicyclo[3.1.0]hexan-6-yl)ethyl)-3-(pyridin-3-yl)acrylamide]
[1]
  IC50: < 0.01 µM

## COc1cc(N2C[C@@H]3[C@@H](CCNC(=O)/C=C/c4cccnc4)[C@@H]3C2)ccn1 [Example 161, (E)-N-(2-((1R,5S,6S)-3-(2-methoxypyridin-4-yl)-3-azabicyclo[3.1.0]hexan-6-yl)ethyl)-3-(pyridin-3-yl)acrylamide]
[1]
  IC50: 0.01 to 0.49 µM

## O=C(/C=C/c1cccnc1)NCC[C@@H]1[C@H]2CN(c3ncc(C(F)(F)F)cn3)C[C@@H]12 [Example 162, (E)-3-(pyridin-3-yl)-N-(2-((1R,5S,6s)-3-(5-(trifluoromethyl)pyrimidin-2-yl)-3-azabicyclo[3.1.0]hexan-6-yl)ethyl)acrylamide]
[1]
  IC50: 0.01 to 0.49 µM

## O=C(/C=C/c1cccnc1)NCC[C@@H]1[C@H]2CN(c3ncc(F)cn3)C[C@@H]12 [Example 163, (E)-N-(2-((1R,5S,6s)-3-(5-fluoropyrimidin-2-yl)-3-azabicyclo[3.1.0]hexan-6-yl)ethyl)-3-(pyridin-3-yl)acrylamide]
[1]
  IC50: 0.01 to 0.49 µM

## O=C(/C=C/c1cccnc1)NCC[C@@H]1[C@H]2CN(c3ncc(Cl)cn3)C[C@@H]12 [Example 164, (E)-N-(2-((1R,5S,6s)-3-(5-chloropyrimidin-2-yl)-3-azabicyclo[3.1.0]hexan-6-yl)ethyl)-3-(pyridin-3-yl)acrylamide]
[1]
  IC50: 0.01 to 0.49 µM

## Nc1ccc(/C=C/C(=O)NCC[C@@H]2[C@H]3CN(c4ncc5ccccc5n4)C[C@@H]23)cn1 [Example 165, (E)-3-(6-aminopyridin-3-yl)-N-(2-((1R,5S,6s)-3-(quinazolin-2-yl)-3-azabicyclo[3.1.0]hexan-6-yl)ethyl)acrylamide]
[1]
  IC50: 0.01 to 0.49 µM

## O=C(/C=C/c1cccnc1)NCC[C@@H]1[C@H]2CN(c3ncc4c(n3)CCOC4)C[C@@H]12 [Example 166, (E)-N-(2-((1R,5S,6s)-3-(7,8-dihydro-5H-pyrano[4,3-d]pyrimidin-2-yl)-3-azabicyclo[3.1.0]hexan-6-yl)ethyl)-3-(pyridin-3-yl)acrylamide]
[1]
  IC50: 0.01 to 0.49 µM

## O=C(/C=C/c1cccnc1)NCC[C@@H]1[C@H]2CN(c3ncc4cc(F)ccc4n3)C[C@@H]12 [Example 167, (E)-N-(2-((1R,5S,6s)-3-(6-fluoroquinazolin-2-yl)-3-azabicyclo[3.1.0]hexan-6-yl)ethyl)-3-(pyridin-3-yl)acrylamide]
[1]
  IC50: 0.01 to 0.49 µM

## O=C(/C=C/c1cccnc1)NCC[C@@H]1[C@H]2CN(c3ccncn3)C[C@@H]12 [Example 168, (E)-3-(pyridin-3-yl)-N-(2-((1R,5S,6s)-3-(pyrimidin-4-yl)-3-azabicyclo[3.1.0]hexan-6-yl)ethyl)acrylamide]
[1]
  IC50: 0.01 to 0.49 µM

## O=C(/C=C/c1cccnc1)NCC[C@@H]1[C@H]2CN(c3nccc(C(F)(F)F)n3)C[C@@H]12 [Example 169, (E)-3-(pyridin-3-yl)-N-(2-((1R,5S,6s)-3-(4-(trifluoromethyl)pyrimidin-2-yl)-3-azabicyclo[3.1.0]hexan-6-yl)ethyl)acrylamide]
[1]
  IC50: < 0.01 µM

## O=C(/C=C/c1cccnc1)NCC[C@@H]1[C@H]2CN(c3ncncn3)C[C@@H]12 [Example 170, (E)-N-(2-((1R,5S,6s)-3-(1,3,5-triazin-2-yl)-3-azabicyclo[3.1.0]hexan-6-yl)ethyl)-3-(pyridin-3-yl)acrylamide]
[1]
  IC50: 0.01 to 0.49 µM

## NC(=O)c1ccnc(N2C[C@@H]3[C@@H](CCNC(=O)/C=C/c4cccnc4)[C@@H]3C2)n1 [Example 171, 2-((1R,5S,6s)-6-(2-((E)-3-(pyridin-3-yl)acrylamido)ethyl)-3-azabicyclo[3.1.0]hexan-3-yl)pyrimidine-4-carboxamide]
[1]
  IC50: < 0.01 µM

## O=C(/C=C/c1cccnc1)NCC[C@@H]1[C@H]2CN(c3nc(Cl)ncc3F)C[C@@H]12 [Example 172, (E)-N-(2-((1R,5S,6s)-3-(2-chloro-5-fluoropyrimidin-4-yl)-3-azabicyclo[3.1.0]hexan-6-yl)ethyl)-3-(pyridin-3-yl)acrylamide]
[1]
  IC50: < 0.01 µM

## COc1nc(N2C[C@@H]3[C@@H](CCNC(=O)/C=C/c4cccnc4)[C@@H]3C2)ncc1F [Example 173, (E)-N-(2-((1R,5S,6s)-3-(5-fluoro-4-methoxypyrimidin-2-yl)-3-azabicyclo[3.1.0]hexan-6-yl)ethyl)-3-(pyridin-3-yl)acrylamide]
[1]
  IC50: 0.01 to 0.49 µM

## NC(=O)c1cnc(N2C[C@@H]3[C@@H](CCNC(=O)/C=C/c4cccnc4)[C@@H]3C2)nc1 [Example 174, 2-((1R,5S,6s)-6-(2-((E)-3-(pyridin-3-yl)acrylamido)ethyl)-3-azabicyclo[3.1.0]hexan-3-yl)pyrimidine-5-carboxamide]
[1]
  IC50: < 0.01 µM

## O=C(/C=C/c1cccnc1)NCC[C@@H]1[C@H]2CN(c3nc(C(F)(F)F)cs3)C[C@@H]12 [Example 175, (E)-3-(pyridin-3-yl)-N-(2-((1R,5S,6s)-3-(4-(trifluoromethyl)thiazol-2-yl)-3-azabicyclo[3.1.0]hexan-6-yl)ethyl)acrylamide]
[1]
  IC50: 0.01 to 0.49 µM

## O=C(/C=C/c1cccnc1)NCC[C@@H]1[C@H]2CN(c3ccccn3)C[C@@H]12 [Example 176, (E)-N-(2-((1R,5S,6s)-3-(pyridin-2-yl)-3-azabicyclo[3.1.0]hexan-6-yl)ethyl)-3-(pyridin-3-yl)acrylamide]
[1]
  IC50: 0.01 to 0.49 µM

## O=C(/C=C/c1cccnc1)NCC[C@@H]1[C@H]2CN(c3cnccn3)C[C@@H]12 [Example 177, (E)-N-(2-((1R,5S,6s)-3-(pyrazin-2-yl)-3-azabicyclo[3.1.0]hexan-6-yl)ethyl)-3-(pyridin-3-yl)acrylamide]
[1]
  IC50: 0.01 to 0.49 µM

## Nc1ccc(/C=C/C(=O)NCC[C@@H]2[C@H]3CN(C(=O)c4cccc(C(=O)O)c4)C[C@@H]23)cn1 [Example 178, 3-((1R,5S,6s)-6-(2-((E)-3-(6-aminopyridin-3-yl)acrylamido)ethyl)-3-azabicyclo[3.1.0]hexane-3-carbonyl)benzoic acid]
[2]
  IC50: 0.01 to 0.49 µM

## Nc1ccc(/C=C/C(=O)NCC[C@@H]2[C@H]3CN(C(=O)c4ccc(C(=O)O)cc4)C[C@@H]23)cn1 [Example 179, 4-((1R,5S,6s)-6-(2-((E)-3-(6-aminopyridin-3-yl)acrylamido)ethyl)-3-azabicyclo[3.1.0]hexane-3-carbonyl)benzoic acid]
[2]
  IC50: 1 to 29 µM
[1]
  IC50: 0.5 to 0.99 µM

## O=C(O)c1cccc(C(=O)N2C[C@@H]3[C@@H](CCNC(=O)c4cc5ccncc5o4)[C@@H]3C2)c1 [Example 180, 3-((1R,5S,6s)-6-(2-(furo[2,3-c]pyridine-2-carboxamido)ethyl)-3-azabicyclo[3.1.0]hexane-3-carbonyl)benzoic acid]
[2]
  IC50: 0.5 to 0.99 µM

## O=C(O)c1cccc(C(=O)N2C[C@@H]3[C@@H](CCNC(=O)c4ccc5nccn5c4)[C@@H]3C2)c1 [Example 181, 3-((1R,5S,6s)-6-(2-(imidazo[1,2-a]pyridine-6-carboxamido)ethyl)-3-azabicyclo[3.1.0]hexane-3-carbonyl)benzoic acid]
[2]
  IC50: 1 to 29 µM
